This note sets out measurements from patent US7485646B2, “Serotonin 5-HT3 receptor agonist” (Research Foundation Itsuu Laboratory, priority 2004, dated 2009).

“And” between values parts separate entries of the source, which are not always exact repeats. Equal entries are not always repeated.

Series [1] deals with T1, serotonin 5-HT3 receptor (Homo sapiens, UniProt P46098).
T1 construct: expressed in transfected cells; host or cells: HEK-293 cells (membrane fraction)
T1 sequence (P46098 24-478): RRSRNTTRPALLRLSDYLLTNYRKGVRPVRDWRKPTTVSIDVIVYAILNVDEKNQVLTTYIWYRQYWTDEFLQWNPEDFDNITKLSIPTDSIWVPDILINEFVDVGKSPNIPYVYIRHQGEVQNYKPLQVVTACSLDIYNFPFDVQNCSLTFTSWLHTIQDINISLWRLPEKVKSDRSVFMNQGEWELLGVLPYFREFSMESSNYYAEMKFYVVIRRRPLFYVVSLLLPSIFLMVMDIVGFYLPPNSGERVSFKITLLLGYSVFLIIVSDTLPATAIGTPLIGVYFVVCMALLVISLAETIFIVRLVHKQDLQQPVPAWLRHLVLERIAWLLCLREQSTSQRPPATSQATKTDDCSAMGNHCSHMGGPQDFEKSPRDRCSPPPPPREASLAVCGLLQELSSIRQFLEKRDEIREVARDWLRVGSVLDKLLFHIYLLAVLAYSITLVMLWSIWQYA
In words: Serotonin 5-HT3 receptor binding affinity ([3H]-GR-65630 binding inhibition). Conditions: 1 μM test compound, membrane fraction from HEK-293 cells; for inhibition at 1 µM: read-out: [3H]-GR65630 binding inhibition rate at 1 μM. As for the experimental part:
Serotonin 5-HT3 receptor binding affinities of the urea derivatives of the present invention and typical compounds among known urea derivatives, N-phenyl-4-methylpiperazine-1-carboxyamide (A), N-(4,5-dichlorophenyl)-4-methylppiperazine-1-carboxyamide (B), N-(3,5-trifluoromethylphenyl)-4-methylpiperazine-1-carboxyamide (C), N-(3-fluorophenyl)-4-methylpiperazine-1-carboxyamide (D) and N-(5-chloro-2-methoxyphenyl)-(4-tert-butyloxycarbonylpiperazine)-1-carboxyamide (E), were determined by the following method, and the results are shown in Table 1. The test compounds of the present invention are mentioned with the example numbers.
According to the method of Boess et al. (Neuropharmacology, 36, 637-647, 1997), affinities were examined by using a membrane fraction obtained from HEK-293 cells and a ligand selective to the serotonin 5-HT3 receptor, [3H]-GR-65630 [3-(5-methyl-1H-imidazol-4-yl)-1-(1-methyl-1H-indol-3-yl)-1-propanone] on the basis of inhibitory actions of the test compounds on the specific binding to GR-65630 as an index.

The target of series [2] is T2, serotonin 5-HT3 receptor (Cavia porcellus, UniProt O70212).
T2 construct: longitudinal muscle samples were prepared from the ileums of male or female Hartley guinea pigs; from tissue; host or cells: guinea pig ileum longitudinal muscle
T2 sequence (O70212 20-490): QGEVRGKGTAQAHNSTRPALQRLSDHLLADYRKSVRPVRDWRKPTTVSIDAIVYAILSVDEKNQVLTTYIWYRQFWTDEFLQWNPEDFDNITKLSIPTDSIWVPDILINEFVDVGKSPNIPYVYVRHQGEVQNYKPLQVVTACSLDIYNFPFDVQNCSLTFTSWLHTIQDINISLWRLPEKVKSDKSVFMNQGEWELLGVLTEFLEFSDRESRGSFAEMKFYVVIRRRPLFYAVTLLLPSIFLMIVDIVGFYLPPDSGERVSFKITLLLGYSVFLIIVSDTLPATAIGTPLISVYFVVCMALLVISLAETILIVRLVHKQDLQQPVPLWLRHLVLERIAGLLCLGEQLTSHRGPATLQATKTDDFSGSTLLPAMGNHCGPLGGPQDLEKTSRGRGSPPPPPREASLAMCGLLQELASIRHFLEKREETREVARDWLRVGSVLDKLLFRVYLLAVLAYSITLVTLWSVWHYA
In words: Test for serotonin 5-HT3 receptor partially activating action (guinea pig ileum longitudinal muscle contraction). Conditions: for Activating action: guinea pig ileum contraction relative to 2.6 μM serotonin 5-HT; for Antagonistic action: suppression rate of serotonin 5-HT-induced contraction, guinea pig ileum. The arrangement: species or system Hartley guinea pigs. How it is done:
The serotonin 5-HT3 receptor antagonistic action and the serotonin 5-HT3 receptor activating action of 1-(2-hydroxyethyl)-1-methyl-4-(3,5-dichlorophenylcarbamoyl)piperazinium iodide as the compound of the present invention were determined according to the method of Butler et al. (Br. J. Pharmacol, 94, 397-412, 1988).
About 30-mm longitudinal muscle samples were prepared from the ileums of male or female Hartley guinea pigs (325±25 g). Each sample was hung down in a Magnus tube filled with 10 ml of Krebs solution (pH 7.4, 32° C.) with ventilation of a mixed gas (95% O2, 5% CO2), and loaded with a tension of 1 g, and contractile responses were measured isometrically. The serotonin 5-HT3 receptor activating action of the test compound was represented in terms of a relative value obtained by comparison of the contraction obtained by adding 2.6 μM of serotonin 5-HT to the sample and the contraction of 50% or more obtained within 5 minutes as a percentage based on the maximum contraction. The serotonin 5-HT3 receptor antagonistic action of the test compound was obtained from the contraction suppression rate obtained by adding serotonin 5-HT to the sample.

Series [3] has as its system cisplatin-induced emesis in beagles. The experiment in a line: Antiemetic action on cisplatin-induced emesis in dogs. It counts as in vivo. Conditions: for Number of emesis 0 to 120 (minute) / Number of emesis 121 to 360 (minute) / Time of initial occurrence: 0.5 mg/kg i.v. 30 minutes before cisplatin 3 mg/kg i.v., one value per animal. As for the experimental part:
Actions on cisplatin-induced emesis in beagles of 1-(2-hydroxyethyl)-1-methyl-4-(3,5-dichlorophenylcarbamoyl)piperazinium bromide as the compound of the present invention and 5-chloro-2-(1-homopiperazinyl)-7-methylbenzooxazole (F) (International Publication WO00/31073), which is a benzoxazole derivative having a chemical structure similar to that of the novel urea derivative of the present invention among the known serotonin 5-HT3 receptor partially activating agents, were determined by the following method. The compound of the present invention is mentioned with the example number.
After starvation for 16 hours from one day before the day of the test, beagles (each group consisted of two dogs) were given 300 g of feed pellets and intravenously received cisplatin at a dose of 3 mg/kg 30 minutes later. The test compound was intravenously given 30 minutes before the administration of cisplatin, and frequency and time of emesis were monitored over 6 hours.

As for `CN1CCN(C(=O)Nc2ccc(Cl)c(Cl)c2)CC1` [B, N-(4,5-dichlorophenyl)-4-methylppiperazine-1-carboxyamide, reference compound], the “[3H]-GR65630 binding inhibition rate at 1 μM” value on serotonin 5-HT3 receptor [1] came out at 22%.
Same read-out and setting: under `CN1CCN(C(=O)Nc2cc(C(F)(F)F)cc(C(F)(F)F)c2)CC1` [C, N-(3,5-trifluoromethylphenyl)-4-methylpiperazine-1-carboxyamide, reference compound] stands 2%; under `COc1ccc(Cl)cc1NC(=O)N1CCN(C(=O)OC(C)(C)C)CC1` [E, N-(5-chloro-2-methoxyphenyl)-(4-tert-butyloxycarbonylpiperazine)-1-carboxyamide, reference compound], 5%.
What is called inhibition is the relative decrease from the control value, in per cent. In the case of `C[N+]1(C)CCN(C(=O)Nc2cc(Cl)cc(Cl)c2)CC1` [Example 9, 1,1-Dimethyl-4-(3,5-dichlorophenylcarbamoyl)piperazinium iodide], the inhibition at 1 µM on serotonin 5-HT3 receptor [1] was 104%.
Same read-out and setting: then `C=CC[N+]1(C)CCN(C(=O)Nc2cc(Cl)cc(Cl)c2)CC1` [Example 10, 1-Allyl-1-methyl-4-(3,5-dichlorophenylcarbamoyl)piperazinium iodide], with 105%.
`C[N+]1(CCO)CCN(C(=O)Nc2cc(Cl)cc(Cl)c2)CC1.[I-]` [Example 11, 1-(2-Hydroxyethyl)-1-methyl-4-(3,5-dichlorophenylcarbamoyl)-piperazinium iodide]: the inhibition at 1 µM on serotonin 5-HT3 receptor [1] turned out to be 104%. Besides, the Activating action on serotonin 5-HT3 receptor [2] (1 μM) worked out at 0%; at serotonin 5-HT3 receptor [2] (3 μM), 4%; on serotonin 5-HT3 receptor [2] (10 μM), 14%; on serotonin 5-HT3 receptor [2] (30 μM), 31%; at serotonin 5-HT3 receptor [2] (100 μM), 23%. Further, the Antagonistic action at serotonin 5-HT3 receptor [2] (1 μM) is recorded as 15%; on serotonin 5-HT3 receptor [2] (3 μM), 30%; at serotonin 5-HT3 receptor [2] (10 μM), 37%; on serotonin 5-HT3 receptor [2] (30 μM), 27%; on serotonin 5-HT3 receptor [2] (100 μM), 36%. Besides, the “Serotonin 5-HT3 receptor agonist character (in words)” value at serotonin 5-HT3 receptor [2] (Table 2) is “having both the serotonin 5-HT3 receptor antagonistic action and the serotonin 5-HT3 receptor activating action”.
Turning to `CCC[N+]1(C)CCN(C(=O)Nc2cc(Cl)cc(Cl)c2)CC1` [Example 12, 1-Propyl-1-methyl-4-(3,5-dichlorophenylcarbamoyl)piperazinium bromide], at serotonin 5-HT3 receptor [1], the inhibition at 1 µM was determined as 98%.
Same read-out and setting: then `C[N+]1(CC2CC2)CCN(C(=O)Nc2cc(Cl)cc(Cl)c2)CC1` [Example 13, 1-Cyclopropylmethyl-1-methyl-4-(3,5-dichlorophenylcarbamoyl)-piperazinium bromide], with 98%.
The same measure, in the same setting: then `C[N+]1(Cc2ccccc2)CCN(C(=O)Nc2cc(Cl)cc(Cl)c2)CC1` [Example 14, 1-Benzyl-1-methyl-4-(3,5-dichlorophenylcarbamoyl)piperazinium bromide], with 96%.
As to `COc1ccc(Cl)cc1NC(=O)N1CC[N+](C)(C)CC1` [Example 19, 1,1-Dimethyl-4-(2-methoxy-5-chlorophenylcarbamoyl)piperazinium iodide], at serotonin 5-HT3 receptor [1], the inhibition at 1 µM amounted to 94%.
For the compound `C=CC[N+]1(C)CCN(C(=O)Nc2cc(Cl)ccc2OC)CC1` [Example 20, 1-Allyl-1-methyl-4-(2-methoxy-5-chlorophenylcarbamoyl)piperazinium iodide], the inhibition at 1 µM on serotonin 5-HT3 receptor [1] is 92%.
Turning to `COc1ccc(Cl)cc1NC(=O)N1CC[N+](C)(CCO)CC1` [Example 21, 1-(2-Hydroxyethyl)-1-methyl-4-(2-methoxy-5-chlorophenylcarbamoyl)-piperazinium iodide], the inhibition at 1 µM on serotonin 5-HT3 receptor [1] was 98%.
With `C[N+]1(CCO)CCN(C(=O)Nc2cc(Cl)cc(Cl)c2)CC1.[Br-]` [Example 30, 1-(2-Hydroxyethyl)-1-methyl-4-(3,5-dichlorophenylcarbamoyl)-piperazinium bromide], in series [3], the “Emesis at the initial stage of administration (action on the central nerve system)” value is reported as “no emesis was observed at the initial stage”; the “Suppression of cisplatin-induced emesis in dogs (in words)” value is “effectively suppressed”; the “Number of emesis 0 to 120 (minute)” value was 0; the “Number of emesis 121 to 360 (minute)” value is 1 and 0. Moreover, the “Time of initial occurrence” value in series [3] turned out to be 165 min.
With `Cc1cc(Cl)cc2nc(N3CCCNCC3)oc12` [F, 5-chloro-2-(1-homopiperazinyl)-7-methylbenzooxazole, reference compound], in series [3], the “Time at which emesis occurred after the administration” value was no more than 90 min; the “Number of emesis 0 to 120 (minute)” value was 14 and 8; the “Number of emesis 121 to 360 (minute)” value was 15 and 6; the “Time of initial occurrence” value was 88 min and 79 min.
